From patent US4472286A, “Perfluoroalkyl anion/perfluoroalkyl cation ion pair complexes” (Ciba-Geigy Corporation, priority 1983, dated 1984)

What was measured:
[1] = Surface tension of aqueous solutions (ASTM D-1331-56); format: physicochemical; conditions: for Surface tension, anionic surfactant: Table 5, 0.01%
[2] = Solubility in water of Rf.Rf complexes and precursor surfactants; format: physicochemical
Description: The following Table 1 illustrates how a selected type of an Rf Rf ion-pair complex differs in its properties from the precursor anionic and cationic fluorochemical surfactants. Besides the differences shown in Table 1 (solubility, melting point, surface tension), Rf Rf ion-pair complexes also differ in many other properties from their precursor surfactants.
(§1) The products of Examples 1, 2 and 4 were tested for their respective solubility in distilled water.

[3] = Micellar behavior in distilled water; format: physicochemical
Description: as §1

[4] = background section; cited from earlier work

Molecule: O=S(=O)(O)C(F)(F)C(F)(F)C(F)(F)C(F)(F)C(F)(F)C(F)(F)C(F)(F)C(F)(F)F [FC-95]
- Surface tension, anionic surfactant alone ([1]; Table 4, at 0.01% in water): 42.2
- Surface tension, anionic surfactant [1]: 42.2

Molecule: C[N+](C)(C)CCCNS(=O)(=O)C(F)(F)C(F)(F)C(F)(F)C(F)(F)C(F)(F)C(F)(F)C(F)(F)C(F)(F)F [FC-134]
- Surface tension, cationic surfactant alone ([1]; Table 4, at 0.01% in water): 17.8

Molecule: CCN(CC(=O)O)S(=O)(=O)C(F)(F)C(F)(F)C(F)(F)C(F)(F)C(F)(F)C(F)(F)C(F)(F)C(F)(F)F [FC-128]
- Surface tension, anionic surfactant alone ([1]; Table 4, at 0.01% in water): 24.7
- Surface tension, anionic surfactant [1]: 24.7

Molecule: 3-(1,1,2,2-tetrahydroperfluorooctylthio)-2-hydroxypropyltrimethylammonium 2-methyl-2-(3-[1,1,2,2-tetrahydroperfluorooctylthio]propanesulfonate [Example 1]
- surface tension of concentrated solution ([1]; concentrated solution in distilled water): 16.9 dynes/cm
- solubility in distilled water [2]: 5×10^-3 weight %
- micellar behavior [3]: None

Molecule: decyltrimethylammonium decyl sulfate
- surface tension of aqueous solutions (literature / general knowledge) [4]: ≥ 22 dynes/cm
